Results as given in patent US11331327B2, “Antibacterial use of halogenated salicylanilides” (UNION therapeutics A/S, priority 2014, dated 2022).
Converted amounts (≈) assume the structure as drawn.

System: S. aureus clinical isolates and S. aureus ATCC 29213
Test: MIC assay according to CLSI criteria, Example 2, S. aureus strains
Format: cell-based, Staphylococcus aureus
Conditions: Staphylococcus aureus
Outline: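 Wells received roughly 5×10^5 S. aureus cells taken in exponential growth, in cation-adjusted MH broth. Plates held aerobically at 37° C for 18 hours.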

CN[C@H](CC(C)C)C(=O)N[C@H]1C(=O)N[C@@H](CC(N)=O)C(=O)N[C@H]2C(=O)N[C@H]3C(=O)N[C@H](C(=O)N[C@H](C(=O)O)c4cc(O)cc(O)c4-c4cc3ccc4O)[C@H](O)c3ccc(c(Cl)c3)Oc3cc2cc(c3O[C@@H]2O[C@H](CO)[C@@H](O)[C@H](O)[C@H]2O[C@H]2C[C@](C)(N)[C@H](O)[C@H](C)O2)Oc2ccc(cc2Cl)[C@H]1O [Vancomycin]
MIC (ATCC29213, strain 9-1862936): 1 µg/mL (≈ 0.69 µM) | MIC (ATCC29213, strain 9-2625962): 1 µg/mL (≈ 0.69 µM) | MIC (ATCC29213, strain 9-2642158): 1 µg/mL (≈ 0.69 µM) | MIC (ATCC29213, strain 9-2955245): 1 µg/mL (≈ 0.69 µM) | MIC (ATCC29213, strain 9-26422166): 1 µg/mL (≈ 0.69 µM) | MIC (ATCC29213, strain 000040C): 1 µg/mL (≈ 0.69 µM) | MIC (ATCC29213, strain 000041C): 1 µg/mL (≈ 0.69 µM) | MIC (ATCC29213, strain 000274T): 1 µg/mL (≈ 0.69 µM) | MIC (ATCC29213, strain 114660U): 1 µg/mL (≈ 0.69 µM) | MIC (ATCC29213, strain 115015T): 2 µg/mL (≈ 1.38 µM) | MIC (ATCC29213, strain 115242C): 1 µg/mL (≈ 0.69 µM) | MIC (ATCC29213, strain 115263C): 2 µg/mL (≈ 1.38 µM) | MIC (ATCC29213, strain 115268C): 1 µg/mL (≈ 0.69 µM) | MIC (ATCC29213, strain 115273C): 1 µg/mL (≈ 0.69 µM) | MIC (ATCC29213, strain 115295C): 1 µg/mL (≈ 0.69 µM) | MIC (ATCC29213, strain 115303C): 1 µg/mL (≈ 0.69 µM) | MIC (ATCC29213, strain 115370U): 1 µg/mL (≈ 0.69 µM) | MIC (ATCC29213, strain 115427C): 1 µg/mL (≈ 0.69 µM) | MIC (ATCC29213, strain 115445C): 1 µg/mL (≈ 0.69 µM) | MIC (ATCC29213, strain 115561C): 1 µg/mL (≈ 0.69 µM) | MIC (ATCC29213, strain 115584D): 2 µg/mL (≈ 1.38 µM) | MIC (ATCC29213, strain 115628T): 2 µg/mL (≈ 1.38 µM) | MIC (ATCC29213, strain 115690C): 2 µg/mL (≈ 1.38 µM) | MIC (ATCC29213, strain 115691T): 1 µg/mL (≈ 0.69 µM) | MIC (ATCC29213, strain 115740E): 1 µg/mL (≈ 0.69 µM) | MIC (ATCC29213, strain 115810E): 1 µg/mL (≈ 0.69 µM) | MIC (ATCC29213, strain 115903T): 1 µg/mL (≈ 0.69 µM) | MIC (ATCC29213, strain 116122T): 1 µg/mL (≈ 0.69 µM) | MIC (ATCC29213, strain ATCC 29213): 1 µg/mL (≈ 0.69 µM) | MIC (ATCC29213, strain E5-1029252): 1 µg/mL (≈ 0.69 µM) | MIC (ATCC29213, strain E5-1029558): 1 µg/mL (≈ 0.69 µM) | MIC (ATCC29213, strain E5-1030440): 1 µg/mL (≈ 0.69 µM) | MIC (ATCC29213, strain E5-1030469): 2 µg/mL (≈ 1.38 µM) | MIC (ATCC29213, strain E5-1030472): 1 µg/mL (≈ 0.69 µM) | MIC (ATCC29213, strain E5-1030482): 1 µg/mL (≈ 0.69 µM) | MIC (ATCC29213, strain E5-1033076 (first line, r202)): 1 µg/mL (≈ 0.69 µM) | MIC (ATCC29213, strain E5-1033076 (second line, r203)): 1 µg/mL (≈ 0.69 µM) | MIC (ATCC29213, strain E5-1033088): 1 µg/mL (≈ 0.69 µM) | MIC (ATCC29213, strain E5-1033091): 1 µg/mL (≈ 0.69 µM) | MIC (ATCC29213, strain E5-1035277): 1 µg/mL (≈ 0.69 µM) | MIC (ATCC29213, strain E5-1035284): 1 µg/mL (≈ 0.69 µM) | MIC (ATCC29213, strain E5-1035775): 1 µg/mL (≈ 0.69 µM) | MIC (ATCC29213, strain E5-1035779): 1 µg/mL (≈ 0.69 µM) | MIC (ATCC29213, strain E5-1037958): 1 µg/mL (≈ 0.69 µM) | MIC (ATCC29213, strain E5-1037971): 1 µg/mL (≈ 0.69 µM) | MIC (ATCC29213, strain E5-1038279): 1 µg/mL (≈ 0.69 µM) | MIC (ATCC29213, strain E5-1038286): 1 µg/mL (≈ 0.69 µM) | MIC (ATCC29213, strain E5-1038294): 1 µg/mL (≈ 0.69 µM) | MIC (ATCC29213, strain E5-1039684): 1 µg/mL (≈ 0.69 µM) | MIC (ATCC29213, strain E5-1039697): 1 µg/mL (≈ 0.69 µM) | MIC (ATCC29213, strain E5-1041977): 2 µg/mL (≈ 1.38 µM) | MIC (ATCC29213, strain E5-1041979): 1 µg/mL (≈ 0.69 µM) | MIC (ATCC29213, strain E5-1041980): 1 µg/mL (≈ 0.69 µM) | MIC (ATCC29213, strain E5-1041987): 1 µg/mL (≈ 0.69 µM) | MIC (ATCC29213, strain E5-1043184): 1 µg/mL (≈ 0.69 µM) | MIC (ATCC29213, strain E5-1043668): 1 µg/mL (≈ 0.69 µM) | MIC (ATCC29213, strain E5-1045179): 1 µg/mL (≈ 0.69 µM) | MIC (ATCC29213, strain E5-1046019): 1 µg/mL (≈ 0.69 µM) | MIC (ATCC29213, strain E5-1046020): 1 µg/mL (≈ 0.69 µM) | MIC (ATCC29213, strain E5-1046039): 1 µg/mL (≈ 0.69 µM) | MIC (ATCC29213, strain E5-1046070): 1 µg/mL (≈ 0.69 µM) | MIC (ATCC29213, strain E5-1046074): 1 µg/mL (≈ 0.69 µM) | MIC (ATCC29213, strain E5-1046085): 2 µg/mL (≈ 1.38 µM) | MIC (ATCC29213, strain E5-1046096): 1 µg/mL (≈ 0.69 µM) | MIC (ATCC29213, strain E5-1046296): 1 µg/mL (≈ 0.69 µM) | MIC (ATCC29213, strain E5-1046297): 1 µg/mL (≈ 0.69 µM) | MIC (ATCC29213, strain E5-1046298): 1 µg/mL (≈ 0.69 µM) | MIC (ATCC29213, strain E5-1046723): 2 µg/mL (≈ 1.38 µM) | MIC (ATCC29213, strain E5-1047585): 1 µg/mL (≈ 0.69 µM) | MIC (ATCC29213, strain E5-1047606): 1 µg/mL (≈ 0.69 µM) | MIC (ATCC29213, strain E5-1047924): 1 µg/mL (≈ 0.69 µM) | MIC (ATCC29213, strain E5-1048204): 2 µg/mL (≈ 1.38 µM) | MIC (ATCC29213, strain E5-1048428): 1 µg/mL (≈ 0.69 µM) | MIC (ATCC29213, strain E5-1048654): 1 µg/mL (≈ 0.69 µM) | MIC (ATCC29213, strain E5-1048670): 2 µg/mL (≈ 1.38 µM) | MIC (ATCC29213, strain EEFIC 01): 1 µg/mL (≈ 0.69 µM) | MIC (ATCC29213, strain EEFIC 02): 1 µg/mL (≈ 0.69 µM) | MIC (ATCC29213, strain K000772): 1 µg/mL (≈ 0.69 µM) | MIC (ATCC29213, strain K000796): 1 µg/mL (≈ 0.69 µM) | MIC (ATCC29213, strain K000863): 1 µg/mL (≈ 0.69 µM) | MIC (ATCC29213, strain K000864): 1 µg/mL (≈ 0.69 µM) | MIC (ATCC29213, strain K000866): 1 µg/mL (≈ 0.69 µM) | MIC (ATCC29213, strain K115498): 2 µg/mL (≈ 1.38 µM) | MIC (ATCC29213, strain K115688): 2 µg/mL (≈ 1.38 µM) | MIC (ATCC29213, strain K115689): 2 µg/mL (≈ 1.38 µM) | MIC (ATCC29213, strain R000019): 2 µg/mL (≈ 1.38 µM) | MIC (ATCC29213, strain R000020): 1 µg/mL (≈ 0.69 µM) | MIC (ATCC29213, strain R000024): 1 µg/mL (≈ 0.69 µM) | MIC (ATCC29213, strain U115579): 1 µg/mL (≈ 0.69 µM) | MIC (ATCC 29213 / MRSA, strain MRSA 01): 1 µg/mL (≈ 0.69 µM) | MIC (ATCC 29213 / MRSA, strain MRSA 02): 2 µg/mL (≈ 1.38 µM) | MIC (ATCC 29213 / MRSA, strain MRSA 03): 1 µg/mL (≈ 0.69 µM) | MIC (ATCC 29213 / MRSA, strain MRSA 04): 2 µg/mL (≈ 1.38 µM) | MIC (ATCC 29213 / MRSA, strain MRSA 05): 1 µg/mL (≈ 0.69 µM) | MIC (ATCC 29213 / MRSA, strain MRSA 06): 2 µg/mL (≈ 1.38 µM) | MIC (ATCC 29213 / MRSA, strain MRSA 07): 1 µg/mL (≈ 0.69 µM) | MIC (ATCC 29213 / MRSA, strain MRSA 08): 1 µg/mL (≈ 0.69 µM) | MIC (ATCC 29213 / MRSA, strain MRSA 09): 2 µg/mL (≈ 1.38 µM) | MIC (ATCC 29213 / MRSA, strain MRSA 10): 1 µg/mL (≈ 0.69 µM) | MIC (ATCC 29213 / MRSA, strain MRSA 11): 1 µg/mL (≈ 0.69 µM) | MIC (ATCC 29213 / MRSA, strain MRSA 13): 1 µg/mL (≈ 0.69 µM) | MIC (ATCC 29213 / MRSA, strain MRSA 14): 1 µg/mL (≈ 0.69 µM)
